As a reminder, the IC50 is the point on the concentration scale where inhibition reaches its midpoint.

For 28 compounds, IC50 results are on record in US8841312B2, “Fused pyridine, pyrimidine and triazine compounds as cell cycle inhibitors” (Amgen Inc., priority 2007, dated 2014).

One assay concerns the target Cdk6/CyclinD3 (Homo sapiens (Human), UniProt Q00534). In words: Cdk6 kinase inhibition assay with recombinant Cdk6/CyclinD3, Rb substrate, [33P]-ATP filter plate. The format is biochemical. Particulars: 25 μM ATP, read-out: Cdk 6 IC50. The method in brief: (§1)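 Recombinant Cdk4/CyclinD1 or Cdk6/CyclinD3 phosphorylated Rb protein with [33P]-ATP for 1 h at room temperature. Protein was TCA-precipitated on filter plates and bound radioactivity counted. IC50 by nonlinear regression.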

For a further assay, the target named is Cdk4/CyclinD1 (Homo sapiens (Human), UniProt P11802). In words: Cdk4 kinase inhibition assay with recombinant Cdk4/CyclinD1, Rb substrate, [33P]-ATP filter plate. The format is biochemical. Particulars: 25 μM ATP, read-out: Cdk 4 IC50. In outline:
as §1

Molecules are shown by their SMILES.

Chain of Cdk4/CyclinD1 (P11802 whole entry): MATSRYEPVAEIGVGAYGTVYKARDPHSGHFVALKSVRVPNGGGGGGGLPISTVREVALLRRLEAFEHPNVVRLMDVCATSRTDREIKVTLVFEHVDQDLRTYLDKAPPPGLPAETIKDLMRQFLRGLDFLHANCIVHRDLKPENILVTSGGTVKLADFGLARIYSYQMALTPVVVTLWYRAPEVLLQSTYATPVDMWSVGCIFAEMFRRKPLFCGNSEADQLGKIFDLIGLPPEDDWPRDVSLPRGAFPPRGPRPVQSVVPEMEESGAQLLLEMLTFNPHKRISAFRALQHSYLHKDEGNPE
Chain of Cdk4/CyclinD1 (P24385 whole entry partner): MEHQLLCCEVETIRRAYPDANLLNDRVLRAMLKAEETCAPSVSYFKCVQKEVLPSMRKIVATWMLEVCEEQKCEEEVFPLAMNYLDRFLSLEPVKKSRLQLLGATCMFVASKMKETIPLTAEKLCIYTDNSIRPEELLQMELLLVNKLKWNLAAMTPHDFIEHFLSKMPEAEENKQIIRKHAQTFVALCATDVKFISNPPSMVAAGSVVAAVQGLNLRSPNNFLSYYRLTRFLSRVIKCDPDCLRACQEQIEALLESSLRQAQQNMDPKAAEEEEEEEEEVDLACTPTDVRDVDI
Chain of Cdk6/CyclinD3 (Q00534 whole entry): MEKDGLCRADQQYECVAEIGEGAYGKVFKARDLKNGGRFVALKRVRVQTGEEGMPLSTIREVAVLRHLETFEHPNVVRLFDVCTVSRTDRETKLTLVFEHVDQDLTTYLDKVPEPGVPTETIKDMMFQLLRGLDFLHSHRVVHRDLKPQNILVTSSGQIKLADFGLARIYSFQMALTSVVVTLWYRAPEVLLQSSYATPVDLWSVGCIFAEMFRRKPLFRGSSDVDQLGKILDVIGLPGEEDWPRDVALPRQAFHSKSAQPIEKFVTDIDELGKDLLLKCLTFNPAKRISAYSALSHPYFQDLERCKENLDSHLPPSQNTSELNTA
Chain of Cdk6/CyclinD3 (P30281 whole entry partner): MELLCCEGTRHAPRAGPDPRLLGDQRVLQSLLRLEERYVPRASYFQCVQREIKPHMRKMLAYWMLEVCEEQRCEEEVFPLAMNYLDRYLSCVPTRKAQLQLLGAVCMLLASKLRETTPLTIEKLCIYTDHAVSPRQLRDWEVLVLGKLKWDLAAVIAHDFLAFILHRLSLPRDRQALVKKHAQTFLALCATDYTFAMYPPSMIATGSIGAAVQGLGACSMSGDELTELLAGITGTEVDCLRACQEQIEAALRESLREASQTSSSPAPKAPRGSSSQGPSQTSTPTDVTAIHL

In the case of `Oc1nccc2c3cnc(Nc4ccc(CN5CCNCC5)cn4)nc3n(C3CCCC3)c12` [Example 214, 9-cyclopentyl-2-((5-(1-piperazinylmethyl)-2-pyridinyl)amino)-9H-pyrido[4′,3′:4,5]pyrrolo[2,3-d]pyrimidin-8-ol], the IC50 at Cdk6/CyclinD3 was 21 nM; at Cdk4/CyclinD1, 14 nM.

Consider `OC1CCN(Cc2ccc(Nc3ncc4c5ccncc5n(C5CCCC5)c4n3)nc2)CC1` [Example 215, 1-((6-((9-cyclopentyl-9H-pyrido[4′,3′:4,5]pyrrolo[2,3-d]pyrimidin-2-yl)amino)-3-pyridinyl)methyl)-4-piperidinol], for which the IC50 was 8.2 nM on Cdk6/CyclinD3 and 4.4 nM on Cdk4/CyclinD1.

`OC1CCCN(Cc2ccc(Nc3ncc4c5ccncc5n(C5CCCC5)c4n3)nc2)C1` (centres unmarked) [Example 216, 1-((6-((9-cyclopentyl-9H-pyrido[4′,3′:4,5]pyrrolo[2,3-d]pyrimidin-2-yl)amino)-3-pyridinyl)methyl)-3-piperidinol]: the results for the IC50 at Cdk6/CyclinD3 and on Cdk4/CyclinD1 were 15 nM and 10 nM, respectively.

For the compound `CCOC(=O)CN1CCN(c2ccc(Nc3ncc4c5ccncc5n(C5CCCC5)c4n3)nn2)CC1` [Example 217, ethyl (4-(6-((9-cyclopentyl-9H-pyrido[4′,3′:4,5]pyrrolo[2,3-d]pyrimidin-2-yl)amino)-3-pyridazinyl)-1-piperazinyl)acetate], the half-inhibitory concentration (IC50) at Cdk6/CyclinD3 was found to be 9.8 nM; on Cdk4/CyclinD1 it was 3.6 nM.

As to `O=C(O)CN1CCN(c2ccc(Nc3ncc4c5ccncc5n(C5CCCC5)c4n3)nn2)CC1` [Example 218, (4-(6-((9-cyclopentyl-9H-pyrido[4′,3′:4,5]pyrrolo[2,3-d]pyrimidin-2-yl)amino)-3-pyridazinyl)-1-piperazinyl)acetic acid], the IC50 was determined as 3.6 nM at Cdk6/CyclinD3 and 1.39 nM on Cdk4/CyclinD1.

For the compound `CCOC(=O)CN1CCN(Cc2ccc(Nc3ncc4c5ccncc5n(C5CCCC5)c4n3)nc2)CC1` [Example 219, Ethyl (4-((6-((9-cyclopentyl-9H-pyrido[4′,3′:4,5]pyrrolo[2,3-d]pyrimidin-2-yl)amino)-3-pyridinyl)methyl)-1-piperazinyl)acetate], the IC50 on Cdk6/CyclinD3 came out at 11 nM; on Cdk4/CyclinD1, 5.3 nM.

For the compound `O=C(O)CN1CCN(Cc2ccc(Nc3ncc4c5ccncc5n(C5CCCC5)c4n3)nc2)CC1` [Example 220, (4-((6-((9-cyclopentyl-9H-pyrido[4′,3′:4,5]pyrrolo[2,3-d]pyrimidin-2-yl)amino)-3-pyridinyl)methyl)-1-piperazinyl)acetic acid], the IC50 amounted to 3.3 nM on Cdk6/CyclinD3 and 1 nM on Cdk4/CyclinD1.

Regarding `O=C(c1ccc(Nc2ncc3c4ccncc4n(C4CCCC4)c3n2)nc1)N1CCNCC1` [Example 221, 9-cyclopentyl-N-(5-(1-piperazinylcarbonyl)-2-pyridinyl)-9H-pyrido[4′,3′:4,5]pyrrolo[2,3-d]pyrimidin-2-amine], the IC50 on Cdk6/CyclinD3 is 8 nM; at Cdk4/CyclinD1, 1.4 nM.

With `O=C(O)c1ccc(Nc2ncc3c4ccnc(O)c4n(C4CCCC4)c3n2)nc1` [Example 224, 6-((9-cyclopentyl-8-hydroxy-9H-pyrido[4′,3′:4,5]pyrrolo[2,3-d]pyrimidin-2-yl)amino)-3-pyridinecarboxylic acid], the figures for the IC50 at Cdk6/CyclinD3 and on Cdk4/CyclinD1 were 860 nM and 520 nM, respectively.

In the case of `O=C1CN(Cc2ccc(Nc3ncc4c5ccncc5n(C5CCCC5)c4n3)nc2)CCN1` [Example 225, 4-((6-((9-cyclopentyl-9H-pyrido[4′,3′:4,5]pyrrolo[2,3-d]pyrimidin-2-yl)amino)-3-pyridinyl)methyl)-2-piperazinone], the 50% inhibitory concentration (IC50) is 3 nM on Cdk6/CyclinD3 and 4 nM on Cdk4/CyclinD1.

Take `O=C1CNCCN1Cc1ccc(Nc2ncc3c4ccncc4n(C4CCCC4)c3n2)nc1` [Example 226, 1-((6-((9-cyclopentyl-9H-pyrido[4′,3′:4,5]pyrrolo[2,3-d]pyrimidin-2-yl)amino)-3-pyridinyl)methyl)-2-piperazinone]: the IC50 on Cdk6/CyclinD3 came out at 2.7 nM; on Cdk4/CyclinD1, 3.2 nM.

Take `O=S(=O)(c1ccc(Nc2ncc3c4ccncc4n(C4CCCC4)c3n2)nc1)N1CCNCC1` [Example 227, 9-Cyclopentyl-N-(5-(1-piperazinylsulfonyl)-2-pyridinyl)-9H-pyrido[4′,3′:4,5]pyrrolo[2,3-d]pyrimidin-2-amine]: the IC50 at Cdk6/CyclinD3 was 3.1 nM; on Cdk4/CyclinD1, 3 nM.

As to `O=S(=O)(c1ccc(Nc2ncc3c4ccnc(F)c4n(C4CCCC4)c3n2)nc1)N1CCNCC1` [Example 228, 9-cyclopentyl-8-fluoro-N-(5-(1-piperazinylsulfonyl)-2-pyridinyl)-9H-pyrido[4′,3′:4,5]pyrrolo[2,3-d]pyrimidin-2-amine], the figures for the IC50 at Cdk6/CyclinD3 and on Cdk4/CyclinD1 were 3.9 nM and 15 nM, respectively.

In the case of `CN(C)C1CCN(S(=O)(=O)c2ccc(Nc3ncc4c5ccncc5n(C5CCCC5)c4n3)nc2)CC1` [Example 229, 9-cyclopentyl-N-(5-((4-(dimethylamino)-1-piperidinyl)sulfonyl)-2-pyridinyl)-9H-pyrido[4′,3′:4,5]pyrrolo[2,3-d]pyrimidin-2-amine], the half-maximal inhibitory concentration (IC50) at Cdk6/CyclinD3 stood at 20.5 nM; at Cdk4/CyclinD1 it was 21.2 nM.

Take `CN(C)C1CCN(C(=O)c2ccc(Nc3ncc4c5ccncc5n(C5CCCC5)c4n3)nc2)CC1` [Example 230, 9-Cyclopentyl-N-(5-((4-(dimethylamino)-1-piperidinyl)carbonyl)-2-pyridinyl)-9H-pyrido[4′,3′:4,5]pyrrolo[2,3-d]pyrimidin-2-amine]: the IC50 on Cdk6/CyclinD3 and on Cdk4/CyclinD1 was 16 nM each time.

Regarding `c1cc2c3cnc(Nc4ccc(N5CCNCC5)cn4)cc3n(Cc3ccsc3)c2cn1` [Example 235, N-(5-(1-piperazinyl)-2-pyridinyl)-5-(3-thiophenylmethyl)-5H-pyrido[3′,4′:4,5]pyrrolo[2,3-c]pyridin-3-amine], the IC50 on Cdk6/CyclinD3 amounted to 257 nM; at Cdk4/CyclinD1, 125 nM.

For the compound `CN(C)C1CCN(c2ccc(Nc3ncc4c5ccnc(F)c5n(C5CCCC5)c4n3)nn2)CC1` [Example 252, 9-Cyclopentyl-N-(6-(4-(dimethylamino)-1-piperidinyl)-3-pyridazinyl)-8-fluoro-9H-pyrido[4′,3′:4,5]pyrrolo[2,3-d]pyrimidin-2-amine], the half-maximal inhibitory concentration (IC50) on Cdk6/CyclinD3 came out at 5 nM; on Cdk4/CyclinD1, 2 nM.

For the compound `C[C@@H]1CN(c2ccc(Nc3ncc4c5ccnc(F)c5n(C5CCCC5)c4n3)nn2)CCN1` [Example 253, 9-Cyclopentyl-8-fluoro-N-(6-((3R)-3-methyl-1-piperazinyl)-3-pyridazinyl)-9H-pyrido[4′,3′:4,5]pyrrolo[2,3-d]pyrimidin-2-amine], the IC50 came to 27 nM on Cdk6/CyclinD3 and 3.9 nM on Cdk4/CyclinD1.

On to `C1=CCN(c2ccc(Nc3ncc4c5ccncc5n(C5CCCC5)c4n3)nn2)CC1` [Example 254, 9-Cyclopentyl-N-(6-(3,6-dihydro-1(2 H)-pyridinyl)-3-pyridazinyl)-9H-pyrido[4′,3′:4,5]pyrrolo[2,3-d]pyrimidin-2-amine], for which the IC50 at Cdk6/CyclinD3 was 40 nM; on Cdk4/CyclinD1 it was 22 nM.

For the compound `C1=C(c2ccc(Nc3ncc4c5ccncc5n(C5CCCC5)c4n3)nn2)CCNC1` [Example 255, 9-Cyclopentyl-N-(6-(1,2,3,6-tetrahydro-4-pyridinyl)-3-pyridazinyl)-9H-pyrido[4′,3′:4.5]pyrrolo[2,3-d]pyrimidin-2-amine], the IC50 turned out to be 60 nM at Cdk6/CyclinD3 and 5.6 nM at Cdk4/CyclinD1.

Turning to `C1=C(c2ccc(Nc3ncc4c5ccncc5n(C5CCCC5)c4n3)nc2)CCNC1` [Example 256, 9-Cyclopentyl-N-(1′,2′,3′,6′-tetrahydro-3,4′-bipyridin-6-yl)-9H-pyrido[4′,3′:4,5]pyrrolo[2,3-d]pyrimidin-2-amine], the values for the IC50 at Cdk6/CyclinD3 and at Cdk4/CyclinD1 were 7 nM and 1.3 nM, respectively.

As for `c1cc2c3cnc(Nc4ccc(C5CCNCC5)cn4)nc3n(C3CCCC3)c2cn1` [Example 257, 9-cyclopentyl-N-(5-(4-piperidinyl)-2-pyridinyl)-9H-pyrido[4′,3′:4,5]pyrrolo[2,3-d]pyrimidin-2-amine], the results for the IC50 at Cdk6/CyclinD3 and at Cdk4/CyclinD1 were 5.3 nM and 7 nM, respectively.

For `c1cc(-c2ccc(Nc3ncc4c5ccncc5n(C5CCCC5)c4n3)nn2)ccn1` [Example 259, 9-cyclopentyl-N-(6-(4-pyridinyl)-3-pyridazinyl)-9H-pyrido[4′,3′:4,5]pyrrolo[2,3-d]pyrimidin-2-amine], the IC50 at Cdk6/CyclinD3 came to 101 nM; on Cdk4/CyclinD1 it was 49 nM.

Take `c1cc(-c2ccc(Nc3ncc4c5ccncc5n(C5CCCC5)c4n3)nc2)ccn1` [Example 260, N-3,4′-bipyridin-6-yl-9-cyclopentyl-9H-pyrido[4′,3′:4,5]pyrrolo[2,3-d]pyrimidin-2-amine]: the results for the half-maximal inhibitory concentration (IC50) on Cdk6/CyclinD3 and at Cdk4/CyclinD1 were 60 nM and 45 nM, respectively.

Turning to `COc1ccc(-c2ccc(Nc3ncc4c5ccncc5n(C5CCCC5)c4n3)nn2)cn1` [Example 261, 9-Cyclopentyl-N-(6-(6-methoxy-3-pyridinyl)-3-pyridazinyl)-9H-pyrido[4′,3′:4,5]pyrrolo[2,3-d]pyrimidin-2-amine], the concentration for half-maximal inhibition (IC50) is 360 nM at Cdk6/CyclinD3 and 233 nM on Cdk4/CyclinD1.

Consider `COc1cc(-c2ccc(Nc3ncc4c5ccncc5n(C5CCCC5)c4n3)nn2)ccn1` [Example 262, 9-Cyclopentyl-N-(6-(2-methoxy-4-pyridinyl)-3-pyridazinyl)-9H-pyrido[4′,3′:4,5]pyrrolo[2,3-d]pyrimidin-2-amine], for which the results for the IC50 on Cdk6/CyclinD3 and at Cdk4/CyclinD1 were 38 nM and 32 nM, respectively.

Regarding `Oc1cc(-c2ccc(Nc3ncc4c5ccncc5n(C5CCCC5)c4n3)nn2)ccn1` [Example 264, 4-(6-((9-cyclopentyl-9H-pyrido[4′,3′:4,5]pyrrolo[2,3-d]pyrimidin-2-yl)amino)-3-pyridazinyl)-2-pyridinol], the IC50 at Cdk6/CyclinD3 was 16.6 nM; at Cdk4/CyclinD1, 9.3 nM.

In the case of `Oc1ccc(-c2ccc(Nc3ncc4c5ccncc5n(C5CCCC5)c4n3)nn2)cn1` [Example 266, 5-(6-((9-Cyclopentyl-9H-pyrido[4′,3′:4,5]pyrrolo[2,3-d]pyrimidin-2-yl)amino)-3-pyridazinyl)-2-pyridinol], the IC50 worked out at 6.5 nM at Cdk6/CyclinD3 and 3.1 nM on Cdk4/CyclinD1.
